This is an account of results in US20020010182A1, “Piperazine derivatives as tachykinin antagonists” (FUJISAWA PHARMACEUTICAL CO., LTD., priority 1995, published 2002).

Where a name gives a salt, the structure may show the parent alone.

For the assay, the target named is T1, h-NK1 receptors (Homo sapiens, UniProt P25103).
T1 construct: expressed in transfected cells; host or cells: CHO cells (permanent expression), crude cell membranes
T1 sequence (P25103 whole entry): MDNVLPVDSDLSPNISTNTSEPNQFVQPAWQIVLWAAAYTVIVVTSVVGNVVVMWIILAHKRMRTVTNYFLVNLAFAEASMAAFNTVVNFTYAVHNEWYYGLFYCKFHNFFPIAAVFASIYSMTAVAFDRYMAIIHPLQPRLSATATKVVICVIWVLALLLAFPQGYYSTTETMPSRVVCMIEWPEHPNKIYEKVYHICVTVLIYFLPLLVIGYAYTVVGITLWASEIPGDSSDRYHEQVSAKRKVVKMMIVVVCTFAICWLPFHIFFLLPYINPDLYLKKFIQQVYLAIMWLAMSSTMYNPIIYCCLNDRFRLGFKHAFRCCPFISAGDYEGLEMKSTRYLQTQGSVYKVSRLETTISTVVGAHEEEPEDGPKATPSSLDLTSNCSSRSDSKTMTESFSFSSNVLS
The experiment in a line: Evaluation of NK1 antagonist transport efficiency to the central nervous system using a h-NK1 receptor binding assay. The settings on record: 5 min, brain extract of male SD rats 5 min after i.v. injection of test compound, CHO cell membranes expressing h-NK1, read-out: inhibition rate of 125I-BH-Substance P binding to h-NK1 receptors. As for the experimental part:
A. Evaluation of NK1 Antagonist Transport Efficiency to the Cental Nervous System Using a h-NK1 Receptor Binding Assay
(1) Administration of Test Compound and Extraction of the Compound From Brain
Male SD rats were given an i.v. injection of a solution containing a test compound (1 mg/kg). 5 Min later the animals were anesthetized by ether, bled and perfused through the aorta ascendens with 20 ml of saline. The brain was rapidly removed, weighed and homogenized in 4 vol. ice-cold distilled water by using Polytoron (KINEMATICA). To extract the test compound, 500 μl of the homogenate, 100 μl of methanol, 500 μl of 0.1 N NaOH and 4 ml of ethyl acetate were mixed by shaking for 10 min at room temperature. The organic phase (2.5 ml) was recovered by centrifugation at 3,000 rpm for 10 min, dried and dissolved in dimethyl sulfoxide.
(2) h-NK1 Receptor Binding Assay
(a) Crude CHO Cell Membrane Preparation
CHO cells permanently expressing h-NK1 receptors were harvested and homogenized with a Dounce homogenizer at 4° C. in a buffer (0.25 M sucrose, 25 mM Tris-HCl (pH 7.4), 10 mM MgCl2, 1 mM EDTA, 5 μg/ml p-APMSF). The homogenate was centrifuged (500×g, 10 min), and the pellet was resuspended in the same buffer, homogenized, and centrifuged. The two supernatants were combined and centrifuged (100,000×g, 1 hour). The crude cell membranes thus isolated were resuspended in a buffer (25 MM Tris-HCl (pH 7.4), 10 mM MgCl2, 1 mM EDTA, 5 μg/ml p-APMSF) and stored at −80° C. until use.
(b) ^125I-BH-Substance P Binding to the Prepared Membrane
Cell membranes (6 μg/ml) were incubated with ^125I-BH-Substance P (0.1 nM) with or without the extracted compounds in 0.25 ml of a medium (50 mM Tris-HCl (pH 7.4), 5 mM MnCl2, 20 μg/ml chymrostatin, 40 μg/ml bacitracin, 4 μg/ml leupeptin, 5 μg/ml p-APMSF, 200 μg/ml BSA) at 22° C. for 90 min. At the end of the incubation period, the contents were quickly filtered through a Blue Mat 11740 filter (pretreated with 0.1% polyethylenimine for 3 hours prior to use) by using SKATRON Cell Harvester. The filter was then washed with a washing buffer (50 mM Tris-HCl (pH 7.4), 5 mM MnCl2) . The radioactivity was counted by using an auto gamma counter (Packard RIASTAR 5420A). All data presented are specific binding defined as that displaceable by 3 μM unlabeled Substance P.
For the compound `O=C(c1cc(C(F)(F)F)cc(C(F)(F)F)c1)N1CCN(CCNCc2cccnc2)C[C@H]1Cc1ccc2ccccc2c1` [82-(7), (2R)-1-[3,5-Bis(trifluoromethyl)benzoyl]-2-(2-naphthylmethyl)-4-[N-(3-pyridylmethyl)-2-aminoethyl]piperazine trihydrochloride], the inhibition at 1 mg/kg was over 80%.

Turning to `O=C(c1cc(C(F)(F)F)cc(C(F)(F)F)c1)N1CCN(CCNN2CCOCC2)C[C@H]1Cc1ccc2ccccc2c1` [82-(8), (2R)-1-[3,5-Bis(trifluoromethyl)benzoyl]-2-(2-naphthylmethyl)-4-(N-morpholino-2-aminoethyl) piperazine dihydrochloride], the inhibition at 1 mg/kg is over 80%.

Consider `O=C(c1cc(C(F)(F)F)cc(C(F)(F)F)c1)N1CCN(CCCNN2CCOCC2)C[C@H]1Cc1ccc2ccccc2c1` [82-(9), (2R)-1-[3,5-Bis(trifluoromethyl)benzoyl]-2-(2-naphthylmethyl)-4-(N-morpholino-3-aminopropyl) piperazine dihydrochloride], for which the inhibition at 1 mg/kg was over 80%.

Turning to `O=C(c1cc(C(F)(F)F)cc(C(F)(F)F)c1)N1CCN(C/C=C/CNCc2cccnc2)C[C@H]1Cc1ccc2ccccc2c1` [82-(10), (2R)-1-[3,5-Bis(trifluoromethyl)benzoyl]-2-(2-naphthylmethyl)-4-[(E)-N-(3-pyridylmethyl)-4-amino-2-butenyl]piperazine trihydrochloride], the inhibition at 1 mg/kg is over 80%.

Turning to `O=C(c1cc(C(F)(F)F)cc(C(F)(F)F)c1)N1CCN(CCCNCc2cccnc2)C[C@H]1Cc1ccc2ccccc2c1` [82-(12), (2R)-1-[3,5-Bis(trifluoromethyl)benzoyl]-2-(2-naphthylmethyl)-4-[N-(3-pyridylmethyl)-3-aminopropyl]piperazine trihydrochloride], the inhibition at 1 mg/kg is over 80%.

Consider `CC(=O)c1ccc(C(=O)N2CCN(C(=O)c3cc(C(F)(F)F)cc(C(F)(F)F)c3)[C@H](Cc3ccc(C)c(C)c3)C2)cc1` [Example 11, (2R)-4-(4-acetylbenzoyl)-1-[3,5-bis (trifluoromethyl)benzoyl]-2-(3,4-dimethylbenzyl)piperazine], for which the inhibition at 1 mg/kg was over 80%.

As to `O=C(c1cc(C(F)(F)F)cc(C(F)(F)F)c1)N1CCN(CCCN2CCc3sccc3C2)C[C@H]1Cc1c[nH]c2ccccc12` [Example 26, (2R)-1-[3,5-Bis(trifluoromethyl)benzoyl]-2-(1H-indol-3-ylmethyl)-4-[3-(4,5,6,7-tetrahydrothieno[3,2-c]pyridin-5-yl)propyl]piperazine], the inhibition at 1 mg/kg is over 80%.

For the compound `O=C(c1cc(C(F)(F)F)cc(C(F)(F)F)c1)N1CCN(CC#CCN2CCOCC2)C[C@H]1Cc1ccc2ccccc2c1` [Example 35, (2R)-1-[3,5-bis(trifluoromethyl)benzoyl]-4-(4-morpholino-2-butynyl)-2-(2-naphthylmethyl) piperazine dihydrochloride], the inhibition at 1 mg/kg is over 80%.

As for `O=C(c1cc(C(F)(F)F)cc(C(F)(F)F)c1)N1CCN(CC#CCN2CCOCC2)C[C@H]1Cc1ccc(Cl)c(Cl)c1` [Example 36, (2R)-1-[3,5-bis(trifluoromethyl)benzoyl]-2-(3,4-dichlorobenzyl)-4-(4-morpholino-2-butynyl) piperazine], the inhibition at 1 mg/kg was over 80%.

For `O=C(c1cc(C(F)(F)F)cc(C(F)(F)F)c1)N1CCN(CCN2CCSCC2)C[C@H]1Cc1ccc2ccccc2c1` [Example 44-(2), (2R)-1-[3,5-Bis(trifluoromethyl)benzoyl]-2-(2-naphthylmethyl)-4-(2-thiomorpholinoethyl) piperazine dihydrochloride], the inhibition at 1 mg/kg was over 80%.

Consider `O=C(c1cc(C(F)(F)F)cc(C(F)(F)F)c1)N1CCN(CCCN2CCSCC2)C[C@H]1Cc1ccc(Cl)c(Cl)c1` [Example 44-(4), (2R)-1-[3,5-Bis(trifluoromethyl)benzoyl]-2-(3,4-dichlorobenzyl) -4-(3-thiomorpholinopropyl) piperazine dihydrochloride], for which the inhibition at 1 mg/kg is over 80%.

As to `O=C(c1cc(C(F)(F)F)cc(C(F)(F)F)c1)N1CCN(CCCN2CCOCC2)C[C@H]1Cc1ccc(Cl)c(Cl)c1` [Example 44-(5), (2R)-1-[3,5-Bis(trifluoromethyl)benzoyl]-2-(3,4-dichlorobenzyl)-4-(3-morpholinopropyl) piperazine dihydrochloride], the inhibition at 1 mg/kg is over 80%.

As for `O=C(c1cc(C(F)(F)F)cc(C(F)(F)F)c1)N1CCN(CCCN2CCSC2)C[C@H]1Cc1c[nH]c2ccccc12` [Example 44-(7), (2R)-4-[3-(Thiazolidin-3-yl)propyl]-1-[3,5-bis (trifluoromethyl)benzoyl]-2-(1H-indol-3-ylmethyl) piperazine dihydrochloride], the inhibition at 1 mg/kg was over 80%.

Take `O=C(c1cc(C(F)(F)F)cc(C(F)(F)F)c1)N1CCN(CCCN2CCC(c3ccccc3)CC2)C[C@H]1Cc1c[nH]c2ccccc12` [Example 46, (2R)-1-[3,5-bis(trifluoromethyl)benzoyl]-2-(1H-indol-3-ylmethyl)-4-[3-(4-phenylpiperidino)propyl]piperazine]: the inhibition at 1 mg/kg is over 80%.

Regarding `O=C(c1cc(C(F)(F)F)cc(C(F)(F)F)c1)N1CCN(CCO)C[C@H]1Cc1ccc(Cl)c(Cl)c1` [Example 47, (2R)-2-(3,4-dichlorobenzyl)-1-[3,5-bis(trifluoromethyl)benzoyl]-4-(2-hydroxyethyl) piperazine hydrochloride], the inhibition at 1 mg/kg is over 80%.

Consider `O=C(c1cc(C(F)(F)F)cc(C(F)(F)F)c1)N1CCN(CCCCCN2CCOCC2)C[C@H]1Cc1c[nH]c2ccccc12` [Example 55, (2R)-1-[3,5-Bis(trifluoromethyl)benzoyl]-2-(1H-indol-3-ylmethyl)-4-(5-morpholinopentyl) piperazine dihydrochloride], for which the inhibition at 1 mg/kg is over 80%.

Regarding `Cc1ccc(C[C@@H]2CN(CCNCc3cccnc3)CCN2C(=O)c2cc(C(F)(F)F)cc(C(F)(F)F)c2)cc1C` [Example 67-(5), (2R)-1-[3,5-Bis(trifluoromethyl)benzoyl]-2-(3,4-dimethylbenzyl)-4-[2-(3-pyridylmethylamino)ethyl]piperazine trihydrochloride], the inhibition at 1 mg/kg was over 80%.

For `Cc1ccc(C[C@@H]2CN(CCN3CCCOCC3)CCN2C(=O)c2cc(C(F)(F)F)cc(C(F)(F)F)c2)cc1C` [Example 67-(6), (2R)-1-[3,5-Bis(trifluoromethyl)benzoyl]-2-(3,4-dimethylbenzyl)-4-(2-homomorpholinoethyl) piperazine dihydrochloride], the inhibition at 1 mg/kg was over 80%.

For the compound `Cc1ccc(C[C@@H]2CN(CCCN3CCCOCC3)CCN2C(=O)c2cc(C(F)(F)F)cc(C(F)(F)F)c2)cc1C` [Example 67-(7), (2R)-1-[3,5-Bis(trifluoromethyl)benzoyl]-2-(3,4-dimethylbenzyl)-4-(3-homomorpholinopropyl) piperazine dihydrochloride], the inhibition at 1 mg/kg was over 80%.

`O=C(c1cc(C(F)(F)F)cc(C(F)(F)F)c1)N1CCN(C/C=C\CN2CCOCC2)C[C@H]1Cc1c[nH]c2ccccc12` [Example 71, (2R) -1-[3,5-bis(trifluoromethyl)benzoyl]-2-(1H-indol-3-ylmethyl)-4-[(Z)-4-morpholino-2-butenyl]piperazine dihydrochloride]: the inhibition at 1 mg/kg is over 80%.
